According to the OligoGym collection:
Where “and” joins values, the source holds several entries; their conditions need not be identical. Identical values can stand only once. After the bases stand the sugars from the 5' end (letter, count) and the backbone: PS all phosphorothioate, else s phosphorothioate and o phosphodiester by linkage. Methylation of C is not given here. e = 2'-O-(2-methoxyethyl) (MOE); k = constrained ethyl (cEt); d = 2'-deoxy (DNA)

Molecular target: IRF4
Conditions: ASO

For CACGAGGTTGCCGAGA (sugars k3 d10 k3, PS), the target mRNA inhibition (MM.1R, 0.0625 µM) was -3%, the target mRNA inhibition (MM.1R, 0.074 µM) was 4% and the target mRNA inhibition (MM.1R, 0.222 µM) was 7%. For the same sequence, the target mRNA inhibition (MM.1R, 0.25 µM) was 9%, the target mRNA inhibition (MM.1R, 0.666 µM) was 22% and the target mRNA inhibition (MM.1R, 1 µM) was 48%. For the same sequence, the target mRNA inhibition (MM.1R, 2 µM) was 34%, the target mRNA inhibition (MM.1R, 4 µM) was 62% and the target mRNA inhibition (SK-MEL-28, 4 µM) was 64%.
CACGGACGAACGCGCA (sugars k3 d10 k3, PS) showed a target mRNA inhibition (SK-MEL-28, 4 µM) of -2%.
CACTAAAGACTATTAG (sugars k3 d10 k3, PS) showed a target mRNA inhibition (SK-MEL-28, 4 µM) of 5%.
CACTAAGCTTGATAAA (sugars k3 d10 k3, PS) gave a target mRNA inhibition (SK-MEL-28, 4 µM) of -11%.
Sequence CACTAATACCTACCTG (sugars k3 d10 k3, PS) has a target mRNA inhibition (SK-MEL-28, 4 µM) of 6%.
For CACTATGCCTGAACTG (sugars k3 d10 k3, PS), the target mRNA inhibition (SK-MEL-28, 4 µM) was 10%.
CACTGGCATTGAGACG (sugars k3 d10 k3, PS) was tested, and the target mRNA inhibition (SK-MEL-28, 4 µM) was 69% and 76%.
Sequence CAGAACTAATGTCCCC (sugars k3 d10 k3, PS) has a target mRNA inhibition (SK-MEL-28, 4 µM) of 69%.
In the case of CAGAAGGGCAACAGTT (sugars k3 d10 k3, PS), the target mRNA inhibition (SK-MEL-28, 4 µM) is reported as 38%.
Sequence CAGAATGGCGAGTTGG (sugars k3 d10 k3, PS) has a target mRNA inhibition (MM.1R, 1 µM) of 31%.
In the case of CAGAATGTTTCGACAT (sugars k3 d10 k3, PS), the target mRNA inhibition (MM.1R, 1 µM) is reported as 14%.
With CAGACATACCTACAAG (sugars k3 d10 k3, PS) the target mRNA inhibition (SK-MEL-28, 4 µM) was 44%.
In the case of CAGATAGTTAAGTACT (sugars k3 d10 k3, PS), the target mRNA inhibition (SK-MEL-28, 4 µM) is reported as 44%.
CAGCAAAGAGGGTCAC (sugars k3 d10 k3, PS) gave a target mRNA inhibition (SK-MEL-28, 4 µM) of 61%.
CAGCAACTCCCTTGGG (sugars k3 d10 k3, PS) was tested, and the target mRNA inhibition (SK-MEL-28, 4 µM) was 23%.
CAGCACCGTGGTGCGA (sugars k3 d10 k3, PS) showed a target mRNA inhibition (MM.1R, 1 µM) of -27%.
In the case of CAGCACTCAGATTCTA (sugars k3 d10 k3, PS), the target mRNA inhibition (SK-MEL-28, 4 µM) is reported as 12%.
CAGCATAGCATTATCT (sugars k3 d10 k3, PS) gave a target mRNA inhibition (SK-MEL-28, 4 µM) of -51%.
CAGCATGACAGGGCGA (sugars k3 d10 k3, PS) was tested, and the target mRNA inhibition (SK-MEL-28, 4 µM) was 56%.
CAGCCGAAGCATTTTA (sugars k3 d10 k3, PS) showed a target mRNA inhibition (MM.1R, 1 µM) of 0%.
With CAGGAGAGCCCCTACC (sugars k3 d10 k3, PS) the target mRNA inhibition (MM.1R, 1 µM) was -8%.
Work on CAGGAGCGCGGAGGGC (sugars k3 d10 k3, PS) yielded a target mRNA inhibition (SK-MEL-28, 4 µM) of 11%.
In the case of CAGGTTTCATTTCATT (sugars k4 d8 k4, PS), the target mRNA inhibition (MM.1R, 0.074 µM) is reported as 2%, the target mRNA inhibition (MM.1R, 0.222 µM) is reported as 3% and the target mRNA inhibition (MM.1R, 0.666 µM) is reported as 19%. The target mRNA inhibition (MM.1R, 2 µM) was 15%, the target mRNA inhibition (SK-MEL-28, 0.185 µM) was 14% and 13% and 18% and the target mRNA inhibition (SK-MEL-28, 4 µM) was 54%. The target mRNA inhibition (SK-MEL-28, 5 µM) was 57% and 55% and 67% and the target mRNA inhibition (SK-MEL-28, 15 µM) was 74% and 72%.
For CAGTAAACGCAAGTCT (sugars k3 d10 k3, PS), the target mRNA inhibition (MM.1R, 1 µM) was -14%.
Work on CAGTAAGAGGGCAGTC (sugars k3 d10 k3, PS) yielded a target mRNA inhibition (SK-MEL-28, 4 µM) of 50%.
In the case of “CAGTGACTTGCATCCA (sugars k2 d9 e3 k2, PS)”, the target mRNA inhibition (MM.1R, 1 µM) is reported as 28%.
In the case of CAGTGACTTGCATCCA (sugars k3 d10 k3, PS), the target mRNA inhibition (MM.1R, 0.0625 µM) is reported as 40% and 20%, the target mRNA inhibition (MM.1R, 0.25 µM) is reported as 43% and 24% and the target mRNA inhibition (MM.1R, 1 µM) is reported as 53% and 38%. The target mRNA inhibition (MM.1R, 4 µM) was 75% and 61%.
“CAGTGATGTCAGGTTT (sugars kddddddddddkekek, PS)” showed a target mRNA inhibition (MM.1R, 1 µM) of 46%.
“CAGTGATGTCAGGTTT (sugars kkddddddddddkeke, PS)” showed a target mRNA inhibition (MM.1R, 1 µM) of 41%.
“CAGTGATGTCAGGTTT (sugars kkdddddddddekeke, PS)” was tested, and the target mRNA inhibition (MM.1R, 1 µM) was 47%.
With “CAGTGATGTCAGGTTT (sugars kkkdddddddddkeke, PS)” the target mRNA inhibition (MM.1R, 1 µM) was 34%.
In the case of CAGTGCTCTTTAACAA (sugars k3 d10 k3, PS), the target mRNA inhibition (SK-MEL-28, 4 µM) is reported as 37%.
With CAGTGGTGGCCGCGGG (sugars k3 d10 k3, PS) the target mRNA inhibition (SK-MEL-28, 4 µM) was 27%.
Work on CAGTTCTAAGCATTGC (sugars k3 d10 k3, PS) yielded a target mRNA inhibition (SK-MEL-28, 4 µM) of 33%.
